Source: the NIST ThermoML archive (doi:10.1016/j.jct.2014.05.015)
Numbers after ± are expanded uncertainties.

Assay: mn = molality of the nth substance listed, in mol/kg
Conditions: 100 kPa, Liquid; for speed of sound: Frequency=3 MHz, Sing-around technique in a fixed-path interferometer; for mass density: Vibrating tube method

C[N+](C)(C)CC(=O)O.[Cl-] [betaine hydrochloride] + O
Conditions	mass density, 293.15 K [kg/m3]	mass density, 298.15 K [kg/m3]	mass density, 303.15 K [kg/m3]	mass density, 308.15 K [kg/m3]	mass density, 313.15 K [kg/m3]	speed of sound, 293.15 K [m/s]	speed of sound, 298.15 K [m/s]	speed of sound, 303.15 K [m/s]	speed of sound, 308.15 K [m/s]	speed of sound, 313.15 K [m/s]
m1 = 0.00988	998.597 ± 0.26	997.445 ± 0.26	996.042 ± 0.26	994.425 ± 0.26	992.605 ± 0.26	1483.8 ± 1.6	1497.7 ± 1.6	1510 ± 1.6	1520.7 ± 1.6	1529.8 ± 1.6
m1 = 0.02034	998.988 ± 0.26	997.829 ± 0.26	996.428 ± 0.26	994.806 ± 0.26	992.98 ± 0.26	1484.8 ± 1.6	1498.7 ± 1.6	1511 ± 1.6	1521.7 ± 1.6	1530.7 ± 1.6
m1 = 0.03199	999.418 ± 0.26	998.253 ± 0.26	996.847 ± 0.26	995.225 ± 0.26	993.389 ± 0.26	1486 ± 1.6	1499.8 ± 1.6	1512.1 ± 1.6	1522.8 ± 1.6	1531.8 ± 1.6
m1 = 0.03929	999.672 ± 0.26	998.509 ± 0.26	997.099 ± 0.26	995.477 ± 0.26	993.638 ± 0.26	1486.6 ± 1.6	1500.5 ± 1.6	1512.8 ± 1.6	1523.5 ± 1.6	1532.4 ± 1.6
m1 = 0.04992	1000.05 ± 0.26	998.883 ± 0.26	997.471 ± 0.26	995.846 ± 0.26	993.998 ± 0.26	1487.6 ± 1.6	1501.3 ± 1.6	1513.6 ± 1.6	1524.4 ± 1.6	1533.3 ± 1.6
m1 = 0.05925	1000.37 ± 0.26	999.196 ± 0.26	997.795 ± 0.26	996.165 ± 0.26	994.316 ± 0.26	1488.4 ± 1.6	1502.3 ± 1.6	1514.2 ± 1.6	1525.1 ± 1.6	1534.1 ± 1.6
